# What was measured:
# CodB [1] = target: T1, CodB (Proteus vulgaris, UniProt A0A6G6SKI1); test: crystal structure at […] Å; GFP thermostability assay titration (Kd); sodium-dependent 3H-cytosine uptake in cells; assay type: binding; set-up: CodB from P. vulgaris expressed as CodB-GFP fusion (GFP-TS assay); cleaved with 3C protease for crystallisation
# CodB [2] = target: T1, CodB; test: GFP thermostability assay titration (Kd); inhibition of 3H-cytosine uptake in cells; assay type: binding; set-up: CodB from P. vulgaris expressed as CodB-GFP fusion, detergent-solubilised membranes
# T1 sequence (A0A6G6SKI1 entry or part of it): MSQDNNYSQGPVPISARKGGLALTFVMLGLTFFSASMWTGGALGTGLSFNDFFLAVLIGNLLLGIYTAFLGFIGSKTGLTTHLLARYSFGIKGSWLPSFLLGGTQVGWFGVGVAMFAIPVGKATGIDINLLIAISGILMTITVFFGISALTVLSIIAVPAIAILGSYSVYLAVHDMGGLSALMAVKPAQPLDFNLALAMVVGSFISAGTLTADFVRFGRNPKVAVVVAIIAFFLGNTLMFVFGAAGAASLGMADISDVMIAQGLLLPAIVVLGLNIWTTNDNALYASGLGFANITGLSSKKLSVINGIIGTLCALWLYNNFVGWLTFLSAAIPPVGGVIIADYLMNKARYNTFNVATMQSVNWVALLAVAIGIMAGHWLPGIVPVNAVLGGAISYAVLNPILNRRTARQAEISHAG
SMILES,Kd (CodB [1]) [µM],Kd (CodB [2]) [µM]
Nc1cc[nH]c(=O)n1 [cytosine],51 ± 9,
Nc1nc(=O)[nH]cc1F [5-fluorocytosine],,285 ± 39

# Source: paper PMC9379551, “Structure of cytosine transport protein CodB provides insight into nucleobase‐cation symporter 1 mechanism” (The EMBO Journal, 2022)
